Like-named read-outs stand apart in the source and are kept apart here.
Target: T1, human CCR7 (Homo sapiens, UniProt P32248)
T1 construct: expressed in transfected cells
T1 sequence (P32248 25-378): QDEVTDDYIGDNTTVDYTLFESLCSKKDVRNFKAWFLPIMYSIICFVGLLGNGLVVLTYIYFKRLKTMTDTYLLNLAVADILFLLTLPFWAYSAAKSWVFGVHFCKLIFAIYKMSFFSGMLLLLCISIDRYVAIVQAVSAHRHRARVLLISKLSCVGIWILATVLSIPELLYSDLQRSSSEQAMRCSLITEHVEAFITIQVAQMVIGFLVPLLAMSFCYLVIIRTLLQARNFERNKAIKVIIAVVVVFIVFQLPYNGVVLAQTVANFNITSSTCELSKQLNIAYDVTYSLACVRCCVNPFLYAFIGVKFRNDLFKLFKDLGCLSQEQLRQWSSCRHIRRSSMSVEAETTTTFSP
Assay: CCL19-induced calcium mobilization assay, U87.CD4 cells expressing CCR7
Type: cell-based
Protocol: U87.CD4 cells that stably express either human CCR7, CXCR2, CCR5 or CXCR4 were seeded (20,000 cells/well) in gelatin-coated black-walled polystyrene 96-well plates with clear bottom and incubated overnight at 37°C and 5% CO2. […] Culture medium was removed, and cells were incubated for 45 min at room temperature in the dark. […] Exactly the same protocol was used to record calcium responses in Chinese hamster ovary (CHO)-K1 cells, upon stimulation with adenosine triphosphate (ATP, purchased from Sigma).

[1] = CCL19 induced calcium signaling, read-out: IC50 [μM] block CCL19 induced calcium signaling
[2] = classification as decoy or active on CCR7
[3] = CCL19-induced calcium signaling, read-out: IC50 [μM] block CCL19 induced calcium signaling
[4] = classification of tested compounds as decoy or active

| Compound | IC50 [1] | Decoy – 0 Active – 1 [2] | IC50 [3] | Decoy – 0 Active – 1 [4] | IC50 |
| --- | --- | --- | --- | --- | --- |
| O=C(CN(c1ccc(Br)cc1)S(=O)(=O)c1ccccc1)Nc1ccccc1C(=O)N1CCOCC1 [C233, c1ccc(cc1)S(=O)(=O)N(CC(=O)Nc2ccccc2C(=O)N3CCOCC3)c4ccc(cc4)Br] | > 50 µM | 0 | – | – | – |
| CN(Cc1ccccc1Cl)C(C(=O)O)c1ccc(F)c(CO)c1 (stereo not drawn) [C171, C[NH+](Cc1ccccc1Cl)C(C(=O)[O-])c1ccc(F)c(CO)c1] | > 50 µM | 0 | – | – | – |
| O=C(O)c1ccc(CNC(=O)C2(c3ccc(Cl)cc3)CCC2)o1 [C185, O=C([O-])c1ccc(CNC(=O)C2(c3ccc(Cl)cc3)CCC2)o1] | > 50 µM | 0 | – | – | – |
| O=S1(=O)N=C(NCc2ccco2)c2ccccc21 [C148, O=S1(=O)N=C(NCc2ccco2)c2ccccc21] | – | – | > 50 µM | 0 | – |
| CCN(CC)C(CNC(=O)c1ccc(C)[nH]c1=O)Cc1ccccc1 (stereo not drawn) [C283, CCN(CC)C(CNC(=O)c1ccc(C)[nH]c1=O)Cc1ccccc1] | – | 0 | – | – | > 50 µM |
| Cc1ccnc(NC(=S)NC(=O)c2cccc3ccccc23)c1 [C032, Cc1ccnc(NC(=S)NC(=O)c2cccc3ccccc23)c1] | – | – | > 30 µM | 0 | – |
| CCn1nccc1[C@H]1NC(=O)CC[C@H]1NC(=O)c1cc(C)n(C)n1 [C152, CCn1nccc1[C@H]1NC(=O)CC[C@H]1NC(=O)c1cc(C)n(C)n1] | – | – | > 50 µM | 0 | – |
| CNC(=O)CN(c1ccc(Cl)cc1)S(=O)(=O)c1ccc(OC)c(OC)c1 [C270, CNC(=O)CN(c1ccc(cc1)Cl)S(=O)(=O)c2ccc(c(c2)OC)OC] | > 50 µM | 0 | – | – | – |
| CCN(CC)S(=O)(=O)c1ccc2c(c1)cc(C(=O)NCc1ccc(C)o1)n2C [C102, CCN(CC)S(=O)(=O)c1ccc2c(c1)cc(C(=O)NCc1ccc(C)o1)n2C] | – | – | > 50 µM | 0 | – |
| COc1ccc(S(=O)(=O)N2CC(C(=O)Nc3ccccc3)Oc3ccccc32)cc1 (stereo not drawn) [C265, COc1ccc(cc1)S(=O)(=O)N2CC(Oc3c2cccc3)C(=O)Nc4ccccc4] | > 50 µM | 0 | – | – | – |
| CNC(=O)c1cccc(NC(=O)c2cn(Cc3ccccn3)nn2)c1C [C100, CNC(=O)c1cccc(NC(=O)c2cn(Cc3ccccn3)nn2)c1C] | – | – | > 50 µM | 0 | – |
| COc1ccc(C(=O)C2CCCN(Cc3cc4ccccc4[nH]3)C2)c(OC)c1 (stereo not drawn) [C273, COc1ccc(C(=O)C2CCCN(Cc3cc4ccccc4[nH]3)C2)c(OC)c1] | > 50 µM | 0 | – | – | – |
| CCNC(=O)CNc1ccc(C)c(C(=O)N(C)C)c1 [C072, CCNC(=O)CNc1ccc(C)c(C(=O)N(C)C)c1] | – | – | > 10 µM | 0 | – |
| O=C1CCC(C(=O)NC(c2ccc(F)cc2)C(F)(F)F)N1 (stereo not drawn) [C204, O=C1CCC(C(=O)NC(c2ccc(F)cc2)C(F)(F)F)N1] | > 50 µM | 0 | – | – | – |
| COc1ccc(S(=O)(=O)N(CC(=O)NCc2ccccn2)Cc2ccccc2)cc1 [C259, COc1ccc(cc1)S(=O)(=O)N(Cc2ccccc2)CC(=O)NCc3ccccn3] | > 50 µM | 0 | – | – | – |
| CC1CCc2c(F)cccc2C1NC(=O)c1n[nH]c(=O)[nH]1 (stereo not drawn) [C222, CC1CCc2c(F)cccc2C1NC(=O)c1n[nH]c(=O)[nH]1] | > 50 µM | 0 | – | – | – |
| NC(=S)Nc1n[nH]c2ccccc12 [C049, S=C(NC1=NNC2=C1C=CC=C2)N] | – | – | > 30 µM | 0 | – |
| COc1cccc(C2CC(O)CN2Cc2nc3ccccc3[nH]2)c1 (stereo not drawn) [C279, COc1cccc(C2CC(O)CN2Cc2nc3ccccc3[nH]2)c1] | > 50 µM | 0 | – | – | – |
| CC1(C)Cc2nc(C(C)(C)C)ncc2C(NC(=O)c2cc(C(F)(F)F)n[nH]2)C1 (stereo not drawn) [C177, CC1(C)Cc2nc(C(C)(C)C)ncc2C(NC(=O)c2cc(C(F)(F)F)n[nH]2)C1] | > 50 µM | 0 | – | – | – |
| CNC(=O)c1cccc(NC(=O)N2CC[C@@H](c3ccccc3)C2)c1C [C098, CNC(=O)c1cccc(NC(=O)N2CC[C@@H](c3ccccc3)C2)c1C] | – | – | > 50 µM | 0 | – |
| Cc1cc(NCC(=O)N(C)Cc2ccco2)ccc1C(=O)N(C)C [C060, Cc1cc(NCC(=O)N(C)Cc2ccco2)ccc1C(=O)N(C)C] | – | – | > 10 µM | 0 | – |
| COc1c[nH]c(C(=O)NC(c2cccnc2)C(F)(F)F)cc1=O (stereo not drawn) [C213, COc1c[nH]c(C(=O)NC(c2cccnc2)C(F)(F)F)cc1=O] | > 50 µM | 0 | – | – | – |
| CN(C)CCNc1c(Nc2cc(C(F)(F)F)cc(C(F)(F)F)c2)c(=O)c1=O [C024, O=C1C(NCCN(C)C)=C(NC2=CC(C(F)(F)F)=CC(C(F)(F)F)=C2)C1=O] | – | – | > 50 µM | 0 | – |

| Compound | IC50 [1] | Decoy – 0 Active – 1 [2] | IC50 [3] | Decoy – 0 Active – 1 [4] | IC50 |
| --- | --- | --- | --- | --- | --- |
| COc1ccc(S(=O)(=O)N(CC(=O)N2CCCC2)c2ccc(Cl)cc2)cc1 [C263, COc1ccc(cc1)S(=O)(=O)N(CC(=O)N2CCCC2)c3ccc(cc3)Cl] | > 50 µM | 0 | – | – | – |
| CC(=O)N[C@@H](Cc1ccccc1)C(=O)N[C@H](C)c1ccccc1 [C144, CC(=O)N[C@@H](Cc1ccccc1)C(=O)N[C@H](C)c1ccccc1] | – | – | > 50 µM | 0 | – |
| Cc1cccnc1[C@H](N[C@H]1CCN(CC(F)(F)F)C1=O)C(C)C [C138, Cc1cccnc1[C@H]([NH2+][C@H]1CCN(CC(F)(F)F)C1=O)C(C)C] | – | – | > 50 µM | 0 | – |
| C[C@H](c1ccccc1)[C@@H](C)NC(=O)N[C@H]1CCN(C)C1=O [C114, C[C@@H](NC(=O)N[C@H]1CCN(C)C1=O)[C@H](C)c1ccccc1] | – | – | > 50 µM | 0 | – |
| CN(C)C(=O)c1cc(NCC(=O)NCc2ccco2)ccc1F [C064, CN(C)C(=O)c1cc(NCC(=O)NCc2ccco2)ccc1F] | – | – | > 10 µM | 0 | – |
| COc1ccccc1NC(=O)CN(c1ccccc1)S(=O)(=O)c1ccc(OC)c(OC)c1 [C235, COc1ccccc1NC(=O)CN(c2ccccc2)S(=O)(=O)c3ccc(c(c3)OC)OC] | > 50 µM | 0 | – | – | – |
| O=C(NC1CC(C(=O)O)c2ccccc21)C1CCCN(C(=O)N2CCCC2)C1 (stereo not drawn) [C197, O=C(NC1CC(C(=O)[O-])c2ccccc21)C1CCCN(C(=O)N2CCCC2)C1] | > 50 µM | 0 | – | – | – |
| C[C@@H](CNC(=O)N[C@H]1CCO[C@@H](c2ccccc2)C1)c1ccsc1 [C108, C[C@@H](CNC(=O)N[C@H]1CCO[C@@H](c2ccccc2)C1)c1ccsc1] | – | – | > 50 µM | 0 | – |
| CN(C)C(=O)c1cccc(N[C@H]2CCCN(Cc3cccc(O)c3)C2)n1 [C111, CN(C)C(=O)c1cccc(N[C@H]2CCC[N@H+](Cc3cccc(O)c3)C2)n1] | – | – | > 50 µM | 0 | – |
| CCc1cc(C(=O)NCC(O)c2ccc(O)cc2)cc(=O)[nH]1 (stereo not drawn) [C203, CCc1cc(C(=O)NCC(O)c2ccc(O)cc2)cc(=O)[nH]1] | > 50 µM | 0 | – | – | – |
| COC(=O)c1ccccc1Nc1c(NCc2ccc(OC)cc2)c(=O)c1=O [C011, COC(=O)c1ccccc1Nc1c(NCc2ccc(OC)cc2)c(=O)c1=O] | – | – | > 50 µM | 0 | – |
| Cc1ccc(CN(C(=O)CNc2ccc(C(N)=O)c(C)c2)C2CC2)o1 [C053, Cc1ccc(CN(C(=O)CNc2ccc(C(N)=O)c(C)c2)C2CC2)o1] | – | – | > 10 µM | 0 | – |
| Cc1ccc(S(=O)(=O)N(C)c2ccccc2C(=O)NCc2ccco2)cc1 [C240, Cc1ccc(cc1)S(=O)(=O)N(C)c2ccccc2C(=O)NCc3ccco3] | > 50 µM | 0 | – | – | – |
| CC(C)C1(CO)CCCN(C(=O)NCc2ccc(Cl)cc2F)C1 (stereo not drawn) [C168, CC(C)C1(CO)CCCN(C(=O)NCc2ccc(Cl)cc2F)C1] | > 50 µM | 0 | – | – | – |
| O=C(O)CN1C(=O)NC2(CCCc3ccccc32)C1=O (stereo not drawn) [C199, O=C([O-])CN1C(=O)NC2(CCCc3ccccc32)C1=O] | > 50 µM | 0 | – | – | – |
| O=C([C@@H]1CCCO1)N1CCc2ncnc(NCCc3ccco3)c2CC1 [C086, O=C([C@@H]1CCCO1)N1CCc2ncnc(NCCc3ccco3)c2CC1] | – | – | > 50 µM | 0 | – |
| FC(F)(F)c1cc(CNC(=S)NCc2ccccc2)cc(C(F)(F)F)c1 [C050, S=C(NCC1=CC=CC=C1)NCC2=CC(C(F)(F)F)=CC(C(F)(F)F)=C2] | – | – | > 50 µM | 0 | – |
| Cc1cnn(C[C@@H]2CCCN2C(=O)[C@H](C(C)C)n2cncn2)c1 [C143, Cc1cnn(C[C@@H]2CCCN2C(=O)[C@H](C(C)C)n2cncn2)c1] | – | – | > 50 µM | 0 | – |
| CCOC(=O)NC(=S)Nc1ncccn1 [C045, S=C(NC(OCC)=O)NC1=NC=CC=N1] | – | – | > 30 µM | 0 | – |
| Cc1ccc(N=C(N)C(N)=Nc2ccc(C)cc2)cc1 [C065, Cc1ccc([NH+]=C(N)C(N)=[NH+]c2ccc(C)cc2)cc1] | – | – | > 10 µM | 0 | – |
| C[C@@H](NC(=O)c1nnc(-c2ccc(S(=O)(=O)N(C)C)cc2)o1)c1ccccn1 [C092, C[C@@H](NC(=O)c1nnc(-c2ccc(S(=O)(=O)N(C)C)cc2)o1)c1ccccn1] | – | – | > 50 µM | 0 | – |
| CC1CCc2ccccc2C1NC(=O)CCC(=O)N1CCC(O)CC1 (stereo not drawn) [C221, CC1CCc2ccccc2C1NC(=O)CCC(=O)N1CCC(O)CC1] | > 50 µM | 0 | – | – | – |
